These results are taken from PubChem BioAssay (NCI).

Where “and” joins values, the source holds several entries; their conditions need not be identical. Equal entries are not always repeated.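 Results reflect a 48-hour exposure of cells in 96-well plates to compound at five concentrations. The concentration for 50% growth inhibition is given as GI50. TGI denotes the concentration required for complete inhibition of growth.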

Holding throughout (assay): NCI tumour cell line growth inhibition, 48 h
In experiment [1] the test system is M19-MEL melanoma.
Experiment [2] concerns SN12C renal.
The test system of experiment [3] is OVCAR-4 ovarian.
For experiment [4], the system named is K-562 leukemia.
Experiment [5] concerns A549 NSCLC.
For experiment [6], the system named is LXFL 529 NSCLC.
Experiment [7] concerns OVCAR-8 ovarian.
Experiment [8] has as its system HOP-62 NSCLC.
Experiment [9] has as its system BT-549 breast.
Experiment [10] concerns MDA-MB-231 breast.

`CCN(CC)CCC(=O)N1CCc2c([nH]c3ccccc23)C1c1cccnc1` (stereo not drawn): the TGI in experiment [1], in experiment [2], in [3], in experiment [4], in experiment [5] and in [6] was more than 100 µM throughout. The TGI in experiment [7] and in experiment [8] was more than 100 µM each time.
With `O=C(Nc1ccc([N+](=O)[O-])cc1C(=O)O)c1ccc([N+](=O)[O-])cc1`, the TGI in experiment [1] was more than 100 µM; in experiment [2] it was more than 100 µM; in experiment [3], more than 100 µM; in experiment [4], 32.3 µM; in [5], more than 100 µM; in experiment [6], more than 100 µM. In addition, the TGI in experiment [7] and in experiment [8] was more than 100 µM each time.
Take `N#CCc1ccc(/C(C#N)=C2/OC(=N)C(c3ccc(CC#N)cc3)C2=O)cc1` (stereo not drawn): the TGI in experiment [1], in experiment [2], in experiment [3], in experiment [4], in experiment [5] and in [6] was more than 100 µM throughout. Besides, the TGI in experiment [7] and in experiment [8] was more than 100 µM throughout.
As to `N#CCCN(CCC#N)c1ccc(/C=N\c2nc(-c3ccccc3)cs2)cc1`, the TGI in experiment [1], in experiment [2], in [3], in experiment [4], in [5] and in experiment [6] was more than 100 µM throughout. Further, the TGI in experiment [7] and in experiment [8] was more than 100 µM each time.
`Cn1cnc([N+](=O)[O-])c1SC1=NCCS1`: the TGI in experiment [1], in experiment [2], in experiment [3], in experiment [4], in experiment [5] and in experiment [6] was more than 100 µM each time. Also, the TGI in experiment [7] and in [8] was more than 100 µM throughout.
Consider `C/C=C(\CCC1NCCc2c1[nH]c1ccccc21)[Si](C)(C)C` (stereo not drawn), for which the GI50 in experiment [1] is 6.62 µM and 1.95 µM. Moreover, the TGI is 12.9 µM and 3.89 µM in [1]; 11.8 µM and 10.4 µM in experiment [2]; 12.6 µM and 9.04 µM in experiment [3]; 23.2 µM in experiment [9]; 9.29 µM in [4]; 24.9 µM and 21 µM in experiment [5]. For the same molecule, the TGI in experiment [6] is 9.27 µM and 3.2 µM; in experiment [7] it was 19.5 µM and 8.79 µM; in experiment [8], 28.1 µM and 24.5 µM; in [10], 4.56 µM.
Consider `Cc1ccc(NC(=O)COC(=O)c2cccc3c(=O)c4ccccc4[nH]c23)cc1`, for which the TGI in experiment [1], in experiment [2], in [3], in [4], in experiment [5] and in experiment [6] was more than 100 µM in each case. For the same molecule, the TGI in experiment [7] and in experiment [8] was more than 100 µM throughout.
With `CC(=O)OC1(C#N)CC2OC1C1C2N1C(=O)OC(C)(C)C` (stereo not drawn), the TGI in experiment [1], in experiment [2], in experiment [3], in experiment [4], in experiment [5] and in experiment [6] was more than 100 µM in each case. The TGI in experiment [7] and in [8] was more than 100 µM each time.
In the case of `COc1ccc(NC(=O)COC(=O)c2cccc3c(=O)c4ccccc4[nH]c23)cc1`, the TGI amounted to 39 µM in experiment [1]; 92.8 µM in experiment [2]; 38.4 µM in [3]; 37.2 µM in experiment [4]; 53.2 µM in experiment [5]; 43.3 µM in [6]. Moreover, the TGI in [7] came out at 55.9 µM; in [8], 55.1 µM.
Turning to `COc1ccc2cc3[n+](cc2c1OC)CCc1cc2c(cc1-3)OCO2`, the TGI in experiment [1] is 22.4 µM and 41.6 µM; in [2] it was > 100 µM and 75.2 µM and 81 µM; in experiment [3] it was 93.7 µM and > 100 µM and 62 µM; in experiment [9], > 100 µM and 56.9 µM; in experiment [4] it was > 100 µM and > 49.7 µM and 199 µM; in experiment [5] it was more than 325 µM. In addition, the TGI in experiment [6] is more than 74.9 µM; in [8], > 100 µM and 42.4 µM; in [10] it was more than 100 µM. Moreover, the GI50 was 3.71 µM and 2.59 µM and 5.39 µM in experiment [9]; 12.3 µM and 11 µM and 23.5 µM in [4]; 3.69 µM in experiment [7]; 15.9 µM in experiment [10].
Regarding `Cc1ccc([N+](=O)[O-])cc1NC(=O)C(=O)Cc1cc(=O)oc2cc(O)ccc12`, the TGI in experiment [1], in experiment [2], in [3], in [4], in experiment [5] and in [6] was more than 100 µM each time. Besides, the TGI in experiment [7] and in experiment [8] was more than 100 µM in each case.
With `O=C1Cc2ccccc2N1c1c(Cl)cccc1Cl`, the TGI in experiment [1], in experiment [2], in [3], in experiment [4], in [5] and in [6] was more than 100 µM in each case. The TGI in [7] and in experiment [8] was more than 100 µM throughout.
Turning to `Cc1cc(NS(=O)(=O)c2ccc(NC(=O)c3cccc4cc5ccccc5nc34)cc2)no1`, the TGI in experiment [1] was determined as 74.3 µM; in [2] it was 43.3 µM; in [3], 39.7 µM; in experiment [4], 50.6 µM; in experiment [5], 56.2 µM; in experiment [6], 31.5 µM. Moreover, the TGI in experiment [7] is 45.8 µM; in [8], 66.4 µM.
Consider `CC1C=CC(C)C2(O)C(=O)NC(O)C12` (stereo not drawn), for which the TGI in experiment [1], in experiment [2], in experiment [3], in [4], in experiment [5] and in experiment [6] was more than 100 µM in each case. In addition, the TGI in experiment [7] and in experiment [8] was more than 100 µM in each case.
`Cc1cc(Cl)ccc1NC(=O)CC1SC(N)=NC1=O` (stereo not drawn): the TGI in [1], in experiment [2], in experiment [3], in [4], in experiment [5] and in experiment [6] was more than 100 µM throughout. Besides, the TGI in experiment [7] and in experiment [8] was more than 100 µM throughout.
